Patent US9717746B2 (priority 2014, dated 2017)

Experiments:
hippocampal slices [1] = test system: hippocampal slices
hippocampal slices [2] = test system: hippocampal slices; remark: listed apart in the source

| Structure (SMILES) | effect of antidote per se on PS (without neurotoxicant) (hippocampal slices [1]) | neurotoxicity of the neurotoxicant (PS area) (hippocampal slices [2]) |
| --- | --- | --- |
| CCCCCCCCCCCCCCCCCCOCC(COP(=O)([O-])OCC[N+](C)(C)C)OC (racemic) [edelfosine, 1-O-octadecyl-2-O-methyl-rac-glycero-3-phosphocholine] | innocuous |  |
| CC[C@@H]1C(=O)OC[C@@H]1Cc1cncn1C [pilocarpine] |  | neurotoxicity of pilocarpine increases at high potassium concentration |
